Experimental findings from ChEMBL document CHEMBL5096241, “Discovery of 3-Aminopyrazole Derivatives as New Potent and Orally Bioavailable AXL Inhibitors” (J Med Chem, 2022) are described below.

The subject of this assay is 4T1. Briefly: In vivo inhibition of AXL phosphorylation in BALB/c mouse implanted with mouse 4T1 cells administered orally once a day for 14 days. The class given is functional, organism-based. Conditions: dose 50-100 mg/kg, route po, time 14.0 day, DDE = dose-dependent effect.

For `COc1cc2c(Oc3ccc(Nc4nn(C)cc4C(=O)NC4CCCCC4)cc3F)ccnc2cc1OCCCN1CCOCC1`, the inhibition entry was “Dde”.
